Experiment [1] deals with Escherichia coli strain ECM6701 expressing KPC-2 β-lactamase. Nature of the experiment: microbe, parasite or virus in culture. Conditions: 18 h. As to the method:
(§1) MICs were recorded after an eighteen-hour growth at 35° C. […] In Table 1, all genes were cloned into vector pUCP24 and introduced into Escherichia coli strain.

The subject of experiment [2] is Escherichia coli strain ECM6702 expressing KPC-3 β-lactamase. In words: microbe, parasite or virus in culture. Particulars: 18 h. As for the experimental part:
as §1

Experiment [3] has as its system Escherichia coli EC1007 (KPC-3). Nature of the experiment: microbe, parasite or virus in culture. Particulars: 18 h.
Experiment [4] concerns Enterobacter cloacae ECL1055 (KPC-3, TEM). Nature of the experiment: MIC, CLSI broth microdilution, clinical strain ECL1055. Particulars: clinical strain ECL1055, Enterobacter loacae, 18 h, 35° C. The experiment is classed as cell-based. (Dilution methods test growth across graded concentrations, often in twofold steps.)
The subject of experiment [5] is Klebsiella pneumoniae KP1008 (KPC-2). Nature of the experiment: microbe, parasite or virus in culture. Conditions: 18 h.
The subject of experiment [6] is Citrobacter freundii CF1012 (KPC-2). In words: microbe, parasite or virus in culture. Particulars: 18 h.
For experiment [7], the system named is Escherichia coli strain ECM6704 (vector pUCP24 alone). In words: microbe, parasite or virus in culture. The experiment is classed as cell-based. Particulars: E. coli ECM6704, vector alone, cation-adjusted Mueller-Hinton broth, 18 h, 35° C. As for the experimental part:
as §1

In experiment [8] the test system is Enterobacter cloacae ECL1026 (KPC-2, TEM-1). Nature of the experiment: microbe, parasite or virus in culture. The experiment is classed as cell-based. Particulars: 18 h.
For experiment [9], the system named is Enterobacter cloacae ECL1036 (KPC-3, TEM-1). In words: microbe, parasite or virus in culture. The experiment is classed as cell-based. Particulars: 18 h.
For experiment [10], the target named is purified KPC-2 β-lactamase (Klebsiella pneumoniae, UniProt Q9F663). Nature of the experiment: Kinetics of monobactam hydrolysis by purified KPC-2.
Procedure: The optical density was checked every 2 minutes for 2 hours. […] Vmax and Km values were calculated using “Prizm” software (“GraphPad”). Kcat values were calculated using the equation kcat=Vmax/[enzyme concentration].
Experiment [11] concerns Escherichia coli EC1007 (KPC-3). Particulars: clinical strain EC1007, Escherichia coli, 18 h, 35° C.
The test system of experiment [12] is Klebsiella pneumoniae KP1008 (KPC-2). Conditions: clinical strain KP1008, Klebsiella pneumoniae, 18 h, 35° C.
Experiment [13] deals with Citrobacter freundii CF1012 (KPC-2). Conditions: clinical strain CF1012, Citrobacter freundii, 18 h, 35° C.
[14] abbreviates: Escherichia coli, read-out: MIC.

Broadly, the Km is the concentration of substrate that gives half-maximal velocity. For orientation: kcat means the number of substrate molecules converted per active site and unit of time at saturation.

≈ marks a conversion by molar mass, not a printed value. Like-named read-outs stand apart in the source and are kept apart here. Where only a bound is given, the exact number is not on record here.

purified KPC-2 β-lactamase, sequence (Q9F663 25-293 limits assumed): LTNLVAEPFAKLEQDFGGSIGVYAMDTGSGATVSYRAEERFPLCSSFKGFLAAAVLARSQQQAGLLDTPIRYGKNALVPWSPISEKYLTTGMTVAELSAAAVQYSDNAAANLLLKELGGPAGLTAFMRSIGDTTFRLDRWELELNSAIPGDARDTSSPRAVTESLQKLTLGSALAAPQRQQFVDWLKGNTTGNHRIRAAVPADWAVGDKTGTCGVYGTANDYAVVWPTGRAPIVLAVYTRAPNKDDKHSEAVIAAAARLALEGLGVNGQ

Consider `NC(=O)OC[C@@H]1[C@H](NC(=O)/C(=N\OCC(=O)O)c2csc(N)n2)C(=O)N1S(=O)(=O)O` [Carumonam, carumonam], for which the MIC in experiment [1] (Escherichia coli) amounted to 0.25 µg/mL (≈ 0.536 µM); in experiment [2] (Escherichia coli), 0.25 µg/mL (≈ 0.536 µM); in experiment [3], 1 µg/mL (≈ 2.14 µM); in experiment [4] (Enterobacter cloacae, read-out: MIC) it was 4 µg/mL (≈ 8.58 µM); in experiment [5], 0.5 µg/mL (≈ 1.07 µM); in experiment [6], 2 µg/mL (≈ 4.29 µM). Also, the MIC is ≤ 0.125 µg/mL in experiment [7] (setting [14]), 2 µg/mL (≈ 4.29 µM) in experiment [8] (Enterobacter cloacae) and 2 µg/mL (≈ 4.29 µM) in experiment [9] (Enterobacter cloacae).
As for `CC1(C)[C@H](NC(=O)/C(=N\OCC(=O)O)c2csc(N)n2)C(=O)N1OS(=O)(=O)O` [Tigemonam, tigemonam], the MIC in [1] (E. coli ECM6701, KPC-2, cation-adjusted Mueller-Hinton broth, 35° C.) was 0.25 µg/mL (≈ 0.572 µM); in experiment [2] (E. coli ECM6702, KPC-3, cation-adjusted Mueller-Hinton broth, 35° C.) it was 0.5 µg/mL (≈ 1.14 µM); in [11], 1 µg/mL (≈ 2.29 µM); in [4] it was 8 µg/mL (≈ 18.3 µM); in [7], “<=0.125 μg/ml”; in experiment [12], 1 µg/mL (≈ 2.29 µM). The MIC in experiment [13] stood at 8 µg/mL (≈ 18.3 µM); in [8] (clinical strain ECL1026, Enterobacter cloacae, KPC-2, TEM-1, 35° C.), 4 µg/mL (≈ 9.14 µM); in experiment [9] (clinical strain ECL1036, Enterobacter Vcloacae, KPC-3, TEM-1, 35° C.), 8 µg/mL (≈ 18.3 µM). The Michaelis-Menten constant (Km) in [10] (50 mM sodium phosphate pH 7.0, 0.1 mg/ml BSA, 37° C., OD 318 nm) turned out to be 678 µM. For the same compound, in [10] (kcat=Vmax/[enzyme concentration]), the kcat stood at 0.233 s⁻¹.
On to `C[C@H]1[C@H](NC(=O)/C(=N\OC(C)(C)C(=O)O)c2csc(N)n2)C(=O)N1S(=O)(=O)O` [Aztreonam, aztreonam], for which the MIC in experiment [7] (setting [14]) is ≤ 0.125 µg/mL.

(Values after patent US20140128364A1, “THERAPEUTIC USES OF TIGEMONAM AND CARUMONAM” (priority 2012, published 2014).)
